Measured values published in ChEMBL document CHEMBL1201862, “PubChem BioAssay data set” (2004).
Activity calls are given as the source filed them.

Key:
HEK293 [1] = test: inhibition of NOD1-driven NF-kB reporter – cell-based, luminescence, uHTS, primary screen (AID 1578); format: functional; settings: Homo sapiens
HEK293 [2] = test: cells; format: functional, cell-based; settings: Homo sapiens
HEK293 [3] = test: cells; format: functional, cell-based; settings: Homo sapiens; remark: listed apart in the source
[4] = Luminescence-based counterscreen assay for KLF5 inhibitors: dose response cell-based high throughput screening assay to identify cytotoxic compounds using the IEC-6 intestinal epithelial cell line. [Related pubchem assays: 1700 (Primary screen.), 1834 (Confirmation screen.), 1858 (Summary AID.), 1905 (Counterscreen.)]; format: functional
[5] = target: Nucleotide-binding oligomerization domain-containing protein 2 (Homo sapiens, UniProt Q9HC29); test: inhibition of NOD2-driven NF-kB reporter – cell-based, luminescence, uHTS, HEK293 (AID 1566); format: functional
Nucleotide-binding oligomerization domain-containing protein 2, sequence (Q9HC29 whole entry, the tested form may be a part): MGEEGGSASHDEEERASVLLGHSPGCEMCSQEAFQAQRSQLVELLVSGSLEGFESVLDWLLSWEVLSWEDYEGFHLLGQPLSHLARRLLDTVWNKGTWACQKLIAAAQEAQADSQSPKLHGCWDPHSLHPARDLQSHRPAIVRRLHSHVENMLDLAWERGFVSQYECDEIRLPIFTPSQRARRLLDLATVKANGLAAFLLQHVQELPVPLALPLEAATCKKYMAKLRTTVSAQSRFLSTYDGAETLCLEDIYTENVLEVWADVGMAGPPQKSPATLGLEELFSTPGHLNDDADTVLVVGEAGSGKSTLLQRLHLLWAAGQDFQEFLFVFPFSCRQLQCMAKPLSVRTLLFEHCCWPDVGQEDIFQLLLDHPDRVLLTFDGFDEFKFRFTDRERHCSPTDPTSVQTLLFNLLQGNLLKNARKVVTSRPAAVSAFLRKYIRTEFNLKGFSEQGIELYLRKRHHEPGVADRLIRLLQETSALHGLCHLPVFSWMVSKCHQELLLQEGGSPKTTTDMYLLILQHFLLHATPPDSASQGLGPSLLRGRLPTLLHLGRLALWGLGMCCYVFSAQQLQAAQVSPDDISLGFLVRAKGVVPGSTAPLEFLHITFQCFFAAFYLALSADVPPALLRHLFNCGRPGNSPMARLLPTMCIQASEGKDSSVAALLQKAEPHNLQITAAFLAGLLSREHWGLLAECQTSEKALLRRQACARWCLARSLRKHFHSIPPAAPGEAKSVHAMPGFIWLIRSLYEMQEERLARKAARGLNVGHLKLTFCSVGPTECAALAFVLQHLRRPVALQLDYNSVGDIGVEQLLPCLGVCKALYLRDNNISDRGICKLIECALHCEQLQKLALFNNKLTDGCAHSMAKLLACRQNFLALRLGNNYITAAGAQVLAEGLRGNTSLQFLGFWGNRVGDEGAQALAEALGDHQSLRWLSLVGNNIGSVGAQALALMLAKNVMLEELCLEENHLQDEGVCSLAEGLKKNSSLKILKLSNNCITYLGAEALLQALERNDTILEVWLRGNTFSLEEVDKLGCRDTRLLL

HEK293 [6] = test: NOD2 signaling inhibitors in MDP-stimulated cells, cell-based, uHTS, luminescence (AID 2001); format: functional; settings: Homo sapiens
HEK293 [7] = test: cells; format: functional, cell-based; settings: Homo sapiens; remark: listed apart in the source
[8] = target: Eukaryotic translation initiation factor 4H (Homo sapiens, UniProt Q15056); test: eIF4H binding inhibition – biochemical, uHTS, fluorescence polarization, translation initiation inhibitor project, primary screen (AID 2012)
[9] = target: Polyadenylate-binding protein 1 (Homo sapiens, UniProt P11940); test: blockers of PABP interaction with poly(A) – biochemical, fluorescence polarization, […] (AID 2014)
Polyadenylate-binding protein 1, sequence (P11940 whole entry, the tested form may be a part): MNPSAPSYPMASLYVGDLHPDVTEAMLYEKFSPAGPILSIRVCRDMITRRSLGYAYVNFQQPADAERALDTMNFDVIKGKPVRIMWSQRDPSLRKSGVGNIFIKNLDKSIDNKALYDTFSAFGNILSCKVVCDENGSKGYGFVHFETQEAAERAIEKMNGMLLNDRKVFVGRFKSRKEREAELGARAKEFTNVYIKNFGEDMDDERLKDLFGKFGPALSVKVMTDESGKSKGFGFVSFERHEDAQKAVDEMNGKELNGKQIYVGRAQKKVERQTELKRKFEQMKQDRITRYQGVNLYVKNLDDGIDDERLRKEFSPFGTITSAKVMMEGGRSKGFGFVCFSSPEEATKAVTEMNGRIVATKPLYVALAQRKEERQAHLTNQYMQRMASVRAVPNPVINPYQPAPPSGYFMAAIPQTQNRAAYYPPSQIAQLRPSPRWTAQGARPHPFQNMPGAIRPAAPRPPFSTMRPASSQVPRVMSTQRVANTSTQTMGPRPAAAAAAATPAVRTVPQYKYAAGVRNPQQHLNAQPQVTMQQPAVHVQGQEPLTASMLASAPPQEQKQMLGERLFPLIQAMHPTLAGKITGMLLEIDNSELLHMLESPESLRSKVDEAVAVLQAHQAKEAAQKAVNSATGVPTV

[10] = target: T1, RNA-binding protein pos-1 (Caenorhabditis elegans, UniProt G5EF15); test: disruptors of C. elegans POS-1 RNA interaction – biochemical, fluorescence polarization, dose response (AID 1964);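 also: purified POS-1 fused to maltose binding protein made in E. coli; potency of compounds blocking POS-1 binding to fluorescent RNA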
T1 sequence (G5EF15 whole entry): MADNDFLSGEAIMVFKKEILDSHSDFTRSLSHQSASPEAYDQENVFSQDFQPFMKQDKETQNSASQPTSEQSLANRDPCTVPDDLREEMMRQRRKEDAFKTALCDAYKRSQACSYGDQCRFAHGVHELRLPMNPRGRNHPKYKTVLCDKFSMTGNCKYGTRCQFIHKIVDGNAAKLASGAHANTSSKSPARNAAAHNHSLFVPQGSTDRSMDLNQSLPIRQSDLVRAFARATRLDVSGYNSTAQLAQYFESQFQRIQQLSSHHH

[11] = target: T2, Zinc finger protein mex-5 (Caenorhabditis elegans, UniProt Q9XUB2); test: potency of MEX-5 RNA-binding blockers – biochemical, C. elegans, fluorescence polarization, dose response (AID 1960)
T2 sequence (Q9XUB2 whole entry): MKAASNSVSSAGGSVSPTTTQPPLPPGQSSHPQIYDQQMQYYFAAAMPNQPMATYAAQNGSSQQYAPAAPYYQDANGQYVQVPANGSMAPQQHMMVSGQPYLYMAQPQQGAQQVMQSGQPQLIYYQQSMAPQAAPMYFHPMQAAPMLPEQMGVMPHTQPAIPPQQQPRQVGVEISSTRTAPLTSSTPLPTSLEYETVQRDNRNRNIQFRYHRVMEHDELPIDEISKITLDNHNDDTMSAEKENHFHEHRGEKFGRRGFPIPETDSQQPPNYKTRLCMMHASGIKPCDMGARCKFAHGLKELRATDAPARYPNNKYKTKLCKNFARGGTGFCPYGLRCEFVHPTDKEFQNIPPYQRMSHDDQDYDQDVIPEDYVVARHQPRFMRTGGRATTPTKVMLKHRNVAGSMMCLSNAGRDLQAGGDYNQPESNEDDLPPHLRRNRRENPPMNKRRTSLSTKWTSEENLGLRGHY

[12] = viability of PTEN-deleted HCT116 cells – cell-based, HCT116 PTEN knockout, dose response (AID 1047); format: functional;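 also: HCT116 colon tumor cells with PTEN knocked out; cells exposed to compound for 60 hours before readout; potency for loss of cell viability measured by luminescence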
Estrogen receptor beta = Estrogen receptor beta (Homo sapiens, UniProt Q92731); test: blockers of SRC-3 recruitment to ERβ – biochemical, ELISA, streptavidin-HRP readout, orthogonal assay, confirmation (AID 1060)
Estrogen receptor beta, sequence (Q92731 whole entry): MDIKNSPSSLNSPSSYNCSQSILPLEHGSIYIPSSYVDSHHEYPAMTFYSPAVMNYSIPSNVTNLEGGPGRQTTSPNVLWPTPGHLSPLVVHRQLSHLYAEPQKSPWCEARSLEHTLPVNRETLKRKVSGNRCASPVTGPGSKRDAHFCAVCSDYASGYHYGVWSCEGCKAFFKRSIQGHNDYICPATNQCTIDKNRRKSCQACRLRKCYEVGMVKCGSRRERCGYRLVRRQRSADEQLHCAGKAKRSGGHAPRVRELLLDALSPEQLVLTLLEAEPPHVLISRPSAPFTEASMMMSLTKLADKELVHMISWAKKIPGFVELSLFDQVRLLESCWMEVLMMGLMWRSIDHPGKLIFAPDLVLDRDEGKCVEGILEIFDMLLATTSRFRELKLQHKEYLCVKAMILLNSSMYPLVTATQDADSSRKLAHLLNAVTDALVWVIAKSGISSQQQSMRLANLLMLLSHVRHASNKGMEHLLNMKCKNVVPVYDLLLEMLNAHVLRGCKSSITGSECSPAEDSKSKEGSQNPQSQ

[13] = viability of HCT116 lacking mutant beta-catenin – cell-based, human colon tumor, dose response (AID 1045); format: functional;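 also: HCT116 colon tumor cells with beta catenin knocked out; cells exposed to compound for 60 hours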
[14] = target: Eukaryotic translation initiation factor 4E (Mus musculus, UniProt P63073); test: blockers of eIF4G binding by eIF4E – biochemical, TR-FRET, dose response (AID 855); format: functional;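 also: potency for disrupting eIF4E binding to eIF4GI seen as loss of FRET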
Eukaryotic translation initiation factor 4E, sequence (P63073 whole entry): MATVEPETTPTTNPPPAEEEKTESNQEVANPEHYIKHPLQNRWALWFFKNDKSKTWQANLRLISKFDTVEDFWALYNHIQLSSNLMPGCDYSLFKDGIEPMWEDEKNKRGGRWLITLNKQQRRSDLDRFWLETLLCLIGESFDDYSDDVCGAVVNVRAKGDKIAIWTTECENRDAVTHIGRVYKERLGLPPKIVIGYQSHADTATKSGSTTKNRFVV

[15] = target: T3, Replicative DNA helicase DnaB (Mycobacterium tuberculosis, UniProt P9WMR3); test: DnaB intein splicing inhibitors, dose response, biochemical, cell-free fluorescence (AID 449749); format: functional
T3 sequence (P9WMR3 whole entry): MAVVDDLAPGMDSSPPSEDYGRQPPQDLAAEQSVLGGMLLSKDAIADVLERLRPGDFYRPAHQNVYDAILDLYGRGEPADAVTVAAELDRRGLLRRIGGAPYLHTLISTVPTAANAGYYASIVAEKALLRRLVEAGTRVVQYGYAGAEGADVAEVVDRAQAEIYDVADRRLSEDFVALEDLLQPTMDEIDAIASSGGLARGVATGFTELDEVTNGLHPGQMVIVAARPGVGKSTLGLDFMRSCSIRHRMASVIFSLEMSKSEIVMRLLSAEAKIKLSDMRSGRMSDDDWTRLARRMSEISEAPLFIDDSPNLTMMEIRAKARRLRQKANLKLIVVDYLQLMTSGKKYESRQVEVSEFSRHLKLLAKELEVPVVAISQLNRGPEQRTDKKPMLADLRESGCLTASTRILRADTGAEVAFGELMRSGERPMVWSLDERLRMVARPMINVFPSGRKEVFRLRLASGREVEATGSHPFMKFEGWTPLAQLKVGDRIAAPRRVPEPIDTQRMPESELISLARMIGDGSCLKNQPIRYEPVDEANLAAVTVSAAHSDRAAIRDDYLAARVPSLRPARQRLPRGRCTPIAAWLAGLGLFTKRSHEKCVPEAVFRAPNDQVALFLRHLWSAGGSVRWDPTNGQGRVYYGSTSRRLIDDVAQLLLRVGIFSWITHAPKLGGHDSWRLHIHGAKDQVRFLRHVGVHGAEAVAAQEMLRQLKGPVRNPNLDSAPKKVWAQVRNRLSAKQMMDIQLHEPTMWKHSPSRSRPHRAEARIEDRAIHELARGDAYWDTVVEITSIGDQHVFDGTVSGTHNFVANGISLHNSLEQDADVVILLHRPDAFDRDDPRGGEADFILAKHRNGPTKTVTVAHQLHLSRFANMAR

Protein RecA = target: T4, Protein RecA (Mycobacterium tuberculosis, UniProt P9WHJ3); test: Fluorescence Cell-Free Homogeneous Dose Retest to Identify Inhibitors of RecA-Intein Splicing Activity. [Related pubchem assays (depositor defined):AID2097, AID2223, AID489010, AID492950]; format: functional
T4 sequence (P9WHJ3 whole entry): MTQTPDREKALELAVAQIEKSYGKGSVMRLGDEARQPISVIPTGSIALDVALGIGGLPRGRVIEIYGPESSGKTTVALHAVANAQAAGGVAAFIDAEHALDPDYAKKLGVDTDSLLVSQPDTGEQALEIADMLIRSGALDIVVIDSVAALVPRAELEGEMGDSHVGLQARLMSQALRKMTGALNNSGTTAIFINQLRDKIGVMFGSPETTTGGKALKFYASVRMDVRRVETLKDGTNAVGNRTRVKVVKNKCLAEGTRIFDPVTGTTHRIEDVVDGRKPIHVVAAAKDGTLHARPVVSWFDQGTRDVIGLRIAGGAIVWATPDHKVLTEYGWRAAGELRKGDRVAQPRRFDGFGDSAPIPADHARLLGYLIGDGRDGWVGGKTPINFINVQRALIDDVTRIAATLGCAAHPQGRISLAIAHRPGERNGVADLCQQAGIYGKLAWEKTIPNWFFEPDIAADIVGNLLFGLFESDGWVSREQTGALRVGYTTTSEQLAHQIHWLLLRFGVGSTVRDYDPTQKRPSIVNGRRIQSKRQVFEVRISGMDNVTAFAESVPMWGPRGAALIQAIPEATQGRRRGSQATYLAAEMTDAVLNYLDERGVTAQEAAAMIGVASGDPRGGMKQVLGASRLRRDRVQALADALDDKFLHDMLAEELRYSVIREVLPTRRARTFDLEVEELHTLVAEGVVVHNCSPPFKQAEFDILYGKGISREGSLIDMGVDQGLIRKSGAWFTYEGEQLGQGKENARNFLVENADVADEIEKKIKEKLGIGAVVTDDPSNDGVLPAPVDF

HEK293 [16] = test: Fluorescence-based counterscreen for potentiators or agonists of NPY-Y2: cell-based high-throughput dose response assay to identify inhibitors of cyclic nucleotide gated ion channel (CNGC) activity. In this assay, the parental HEK293 cell line transfected with a cyclic-nucleotide gated ion channel (CNGC)-based cAMP sensor is used to measure inhibition of isoproterenol-induced CNGC activity by test compound.; format: functional; settings: Homo sapiens
[17] = target: Neuropeptide Y receptor type 2 (Homo sapiens, UniProt P49146); test: Fluorescence-based cell-based high-throughput dose response assay for agonists of NPY-Y2. [Related pubchem assays: 1703 (Screening assay (CNGC inhibitors).), 1359 (Screening assay (NPY-Y2 potentiators or agonists).), 1304 (Screening assay (NPY-Y1 potentiators or agonists).), 1710 (Screening assay (NPY-Y2 agonists).), 1791 (Summary AID.)]; format: functional
Neuropeptide Y receptor type 2, sequence (P49146 whole entry): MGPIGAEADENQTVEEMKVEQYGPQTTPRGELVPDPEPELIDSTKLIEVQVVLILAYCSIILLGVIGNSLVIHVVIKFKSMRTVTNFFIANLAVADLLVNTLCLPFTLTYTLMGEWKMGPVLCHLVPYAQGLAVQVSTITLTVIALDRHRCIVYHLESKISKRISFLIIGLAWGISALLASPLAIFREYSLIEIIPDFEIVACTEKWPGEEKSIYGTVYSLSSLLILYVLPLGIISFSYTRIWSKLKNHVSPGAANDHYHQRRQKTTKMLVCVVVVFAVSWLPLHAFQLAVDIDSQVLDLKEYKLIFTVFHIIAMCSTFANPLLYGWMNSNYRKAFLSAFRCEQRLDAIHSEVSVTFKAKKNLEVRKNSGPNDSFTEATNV

[18] = target: Neuropeptide Y receptor type 1 (Homo sapiens, UniProt P25929); test: Fluorescence-based counterscreen for agonists of NPY-Y2: cell-based high-throughput dose response assay for agonists of NPY-Y1.; format: functional
Neuropeptide Y receptor type 1, sequence (P25929 whole entry): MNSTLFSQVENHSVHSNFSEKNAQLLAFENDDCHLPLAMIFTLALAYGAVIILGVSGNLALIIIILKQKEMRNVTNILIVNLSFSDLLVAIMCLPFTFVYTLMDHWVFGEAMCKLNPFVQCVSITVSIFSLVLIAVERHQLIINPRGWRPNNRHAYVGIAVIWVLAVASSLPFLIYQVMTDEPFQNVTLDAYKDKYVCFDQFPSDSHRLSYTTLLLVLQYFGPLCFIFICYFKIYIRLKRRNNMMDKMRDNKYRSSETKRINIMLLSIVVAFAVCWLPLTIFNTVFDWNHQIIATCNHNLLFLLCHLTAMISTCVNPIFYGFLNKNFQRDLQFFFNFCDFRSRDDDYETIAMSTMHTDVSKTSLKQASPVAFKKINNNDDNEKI

[19] = A cytotoxicity screen of small molecule inhibitors of the PhoP region in Salmonella typhi identified in the primary screen. [Related pubchem assays: 1850, 1864, 1985 ]; format: functional

Cc1cc(/C=N/Nc2nc(N)ncc2[N+](=O)[O-])c(C)n1-c1ccccc1F
EC50 (HEK293 [1]): 4.64 µM (active)
IC50 (HEK293 [2]): 1.77 µM (active)
IC50 (HEK293 [3]): > 20 µM (inactive)
IC50 [4]: > 39.8 µM (not active)
EC50 [5]: < 0.31 µM (inactive)
IC50 (HEK293 [6]): 6.02 µM (active)
IC50 (HEK293 [7]): > 20 µM (inactive)

CCN(CC)C(=O)CC(c1ccc2c(c1)OCO2)c1c(OC)cc(OC)c2ccc(=O)oc12 (stereo unspecified)
IC50 [8]: 10.3 µM (active)
IC50 [9]: 20.1 µM (active)

CN1CCN(C2=C(Cl)C(=O)C(c3cnc(N4CCCCC4)s3)=C(Cl)C2=O)CC1
EC50 [10]: 5.11 µM (active)
EC50 [11]: 4.18 µM (active)
EC50 [12]: 10.1 µM (active)
IC50 (Estrogen receptor beta): 0.63 µM (not active)
EC50 [13]: 8.57 µM (active)
IC50 [14]: 19.2 µM (inactive)
AC50 [15]: > 380 µM (inactive)
EC50 (Protein RecA): 1.29 µM (active)

CC(C)c1nnc(NC(=O)CCC(=O)Nc2ccc3c[nH]nc3c2)s1
EC50 (HEK293 [16]): > 35.4 µM (not active)
EC50 [17]: > 35.4 µM (not active)
EC50 [18]: > 35.4 µM (not active)

Clc1ccc(Nc2nc(C3CC3)cs2)cc1
EC50 [19]: > 50 µM (active)
